# PMC7139549, “TLD1433 Photosensitizer Inhibits Conjunctival Melanoma Cells in Zebrafish Ectopic and Orthotopic Tumour Models” (Cancers, 2020)
# System: CRMM2 cells injected into the Duct of Cuvier of zebrafish embryos
# Assay: Zebrafish ectopic CM tumour model, CRMM2
# Type: in vivo, Zebrafish (Danio rerio)
# Settings: for PI (Fluorescence Intensity) / PI (Tumour Area) / Relative Tumour Burden as Measured by Fluorescence Intensity / Tumour Area: CRMM2, Ectopic Model; for PI (Fluorescence Intensity) / PI (Tumour Area): 0 vs 114 J.cm^−2
# Experimental: The zebrafish ectopic conjunctival melanoma tumour model has been described previously. In this model, around 200 fluorescent CM cells are injected into the Duct of Cuvier at 2 dpf, and then disseminate through the blood circulation and grow in the head and tail. To establish the orthotopic tumour model, around 100 red, (td)Tomato fluorescent CRMM1 or CRMM2 cells were injected RO at 2 dpf into tg(Fli:GFP/Casper), endothelial reporter transgenic zebrafish with green fluorescent vasculature and examined by fluorescent microscopy at day 1 and 4 after engraftment (Figure 6A). Tumour expansion at the injection site was measured as fluorescence intensity and tumour area.
# For cancer cell injection, two days post-fertilization (dpf), dechorionated zebrafish embryos were anaesthetized with 0.003% tricaine (Sigma) and plated on a 10 cm Petri dish covered with 1.5% of solidified agarose. CRMM1 and CRMM2 cells were suspended in PBS containing 2% polyvinylpyrrolidone (PVP; Sigma-Aldrich) with a concentration of 50,000 cells/µL and loaded into borosilicate glass capillary needles (1 mm O.D. × 0.78 mm I.D.; Harvard Apparatus). In the ectopic model, 200 (td)Tomato fluorescent CM cells were injected into the Duct of Cuvier or at 2 dpf, which led to dissemination through the blood circulation and outgrowth in the head and tail. In orthotopic tumour model, 100 (td)Tomato fluorescent CRMM1 or CRMM2 cells were injected RO in 2 dpf embryos using a Pneumatic Picopump and a manipulator (WPI). After injection, the embryos were incubated in a 34 °C incubator. Images were acquired at 1-, 2- and 4-days post injection (dpi) with a Leica M165 FC stereo fluorescence microscope. Tumor growth was quantified by calculating the total fluorescence intensity and area with the ZF4 pixel counting program (Leiden). Each experiment was performed at least 3 times with a group size of >30 embryos.
# Fluorescent CRMM1 and CRMM2 cells were injected at 2 dpf into the Duct of Cuvier (ectopic model) and behind the eye (orthotopic model) and TLD1433 was delivered by WA, IV and RO administration with or without a light treatment as described in 4.8. For the WA administration, the 4.6 nM TLD1433 solution was added to the tumour cells injected zebrafish at 2.5, 3.5, 4.5, 5.5 dpf and maintained for 12 h. At 3, 4, 5, 6 dpf, the fish water was refreshed, and after 1 h, embryos were exposed to green light for 90 min (21 mW/cm^2, 114 J/cm^2, 520 nm). For the IV and RO administration, 1 nL of 2.3 mM TLD1433 solution was injected via the dorsal vein or the RO site at 3, 4, 5, 6 dpf. After 1 h interval, the embryos were exposed to green light for 90 min (21 mW/cm^2, 114 J/cm^2, 520 nm). After treatment, the embryos images were acquired with a Leica M165 FC stereo fluorescence microscope. Tumor growth was quantified by calculating the total fluorescence intensity and area with the ZF4 pixel counting program (Leiden). Each experiment was performed at least 3 times with a group size of >30 embryos.
# [1] = Intravenous (1 nL of 2.3 mM), Light Dose 0 J.cm^−2, vs control dark group (100%)
# [2] = Intravenous (1 nL of 2.3 mM), Light Dose 114 J.cm^−2, vs control dark group (100%)
# [3] = Water (4.6 nM), Light dose 0 J.cm^−2, vs control dark group (100%)
# [4] = Water (4.6 nM), Light dose 114 J.cm^−2, vs control dark group (100%)
# [5] = CRMM2, ectopic model, IV 2.3 mM, light 114 J.cm^−2
# [6] = CRMM2, ectopic model, RO 2.3 mM, green light 114 J.cm^−2
compound,measurement,setting,value
Cc1ccnc(-c2cc(C)ccn2)c1.Cc1ccnc(-c2cc(C)ccn2)c1.[Cl-].[Cl-].[Ru+2].c1csc(-c2ccc(-c3ccc(-c4nc5c6cccnc6c6ncccc6c5[nH]4)s3)s2)c1 [TLD1433],PI (Fluorescence Intensity),Intravenous (1 nL of 2.3 mM),1.4
same,PI (Tumour Area),Intravenous (1 nL of 2.3 mM),2.0
same,Relative Tumour Burden as Measured by Fluorescence Intensity,[1],97%
same,Tumour Area,[1],99%
same,Relative Tumour Burden as Measured by Fluorescence Intensity,[2],69%
same,Tumour Area,[2],50%
same,PI (Tumour Area),Retro orbital (1 nL of 2.3 mM),2.0
same,Tumour Area,"Retro orbital (1 nL of 2.3 mM), Light dose 0 J.cm^−2, vs control dark group (100%)",94%
same,Tumour Area,"Retro orbital (1 nL of 2.3 mM), Light dose 114 J.cm^−2, vs control dark group (100%)",48%
same,PI (Fluorescence Intensity),Retro-orbital (1 nL of 2.3 mM),1.6
same,Relative Tumour Burden as Measured by Fluorescence Intensity,"Retro-orbital (1 nL of 2.3 mM), Light Dose 0 J.cm^−2, vs control dark group (100%)",93%
same,Relative Tumour Burden as Measured by Fluorescence Intensity,"Retro-orbital (1 nL of 2.3 mM), Light Dose 114 J.cm^−2, vs control dark group (100%)",60%
same,PI (Fluorescence Intensity),Water (4.6 nM),0.93
same,PI (Tumour Area),Water (4.6 nM),0.90
same,Relative Tumour Burden as Measured by Fluorescence Intensity,[3],90%
same,Tumour Area,[3],92%
same,Relative Tumour Burden as Measured by Fluorescence Intensity,[4],96%
same,Tumour Area,[4],102%
same,inhibition of tumour area,[5],50%
same,inhibition of tumour fluorescence intensity,[5],31%
same,diminished fluorescence intensity,[6],40%
same,diminished tumour area,[6],52%
same,effect on tumour burden (in words),"CRMM2, ectopic model, WA at the MTD (4.6 nM), light 114 J.cm^−2",did not inhibit tumour burden
